Test results reported in ChEMBL document CHEMBL1177642, “Synthesis and antibacterial studies of binaphthyl-based tripeptoids. Part 2” (2010).
≈ marks a conversion by molar mass, not a printed value.

Tests used:
Format in all cases: functional
Staphylococcus aureus = experiment: Antimicrobial activity against methicillin-resistant Staphylococcus aureus ATCC 43300 after overnight incubation
Enterococcus faecium [1] = experiment: Antimicrobial activity against vancomycin-resistant Enterococcus faecium 243 after overnight incubation
Enterococcus faecium [2] = experiment: Antimicrobial activity against vancomycin-resistant Enterococcus faecium 449 after overnight incubation
Enterococcus faecium [3] = experiment: Antimicrobial activity against vancomycin-resistant Enterococcus faecium 820 after overnight incubation
Enterococcus faecium [4] = experiment: Antimicrobial activity against vancomycin-resistant Enterococcus faecium 987 after overnight incubation

| SMILES | MIC50 (Staphylococcus aureus) [µg/mL] | MIC50 (Enterococcus faecium [1]) [µg/mL] | MIC50 (Enterococcus faecium [2]) [µg/mL] | MIC50 (Enterococcus faecium [3]) [µg/mL] | MIC50 (Enterococcus faecium [4]) [µg/mL] |
| --- | --- | --- | --- | --- | --- |
| C=CCOc1ccc2ccccc2c1-c1c(OCC(=O)N[C@H](CCCCN)C(=O)N[C@H](CCCNC(=N)N)C(=O)N[C@@H](CC=C)C(=O)OCc2ccccc2)ccc2ccccc12.Cl.Cl | 1.96 | 31.3 | 31.3 | 31.3 | 31.3 |
| C=CC[C@H](NC(=O)[C@@H](CCCNC(=N)N)NC(=O)[C@@H](CCCCN)NC(=O)COc1ccc2ccccc2c1-c1c(OCc2ccccc2)ccc2ccccc12)C(=O)OCc1ccccc1.Cl.Cl | 3.9 | 62.5 | 62.5 | 62.5 | 125 |
| C=CC[C@H](NC(=O)[C@@H](CCCNC(=N)N)NC(=O)[C@@H](CCCCN)NC(=O)COc1ccc2ccccc2c1-c1c(OC)ccc2ccccc12)C(=O)OCc1ccccc1.Cl.Cl | 7.8 | 125 | 62.5 | 62.5 | 125 |
| C=CC[C@H](NC(=O)[C@@H](CCCNC(=N)N)NC(=O)[C@@H](CCCCN)NC(=O)COc1ccc2ccccc2c1-c1c(OCCCCC)ccc2ccccc12)C(=O)OCc1ccccc1.Cl.Cl | 3.9 | 62.5 | 62.5 | 31.3 | 62.5 |
| C=CC[C@H](NC(=O)[C@@H](CCCNC(=N)N)NC(=O)[C@@H](CCCCN)NC(=O)COc1ccc2ccccc2c1-c1c(OCC(C)C)ccc2ccccc12)C(=O)OCc1ccccc1.Cl.Cl | 1.95 | 62.5 | 52.1 | 31.3 | 62.5 |
| C=CC[C@H](NC(=O)[C@@H](CCCNC(=N)N)NC(=O)[C@@H](CCCCN)NC(=O)COc1ccc2ccccc2c1-c1c(OCC(C)(C)C)ccc2ccccc12)C(=O)OCc1ccccc1.Cl.Cl | 3.9 | 62.5 | 62.5 | 31.3 | 83.3 |
| C=CC[C@H](NC(=O)[C@@H](CCCNC(=N)N)NC(=O)[C@@H](CCCCN)NC(=O)COc1ccc2ccccc2c1-c1c(OCC2CCCCC2)ccc2ccccc12)C(=O)OCc1ccccc1.Cl.Cl | 3.9 | 62.5 | 62.5 | 31.3 | 62.5 |
| C[C@H](NC(=O)[C@@H](CCCNC(=N)N)NC(=O)[C@@H](CCCCN)NC(=O)COc1ccc2ccccc2c1-c1c(O)ccc2ccccc12)C(=O)OCc1ccccc1.Cl.Cl | 7.8 | 125 | 52.1 | 62.5 | 125 |
| C=CC[C@H](NC(=O)[C@@H](CCCNC(=N)N)NC(=O)[C@@H](CCCCN)NC(=O)COc1ccc2ccccc2c1-c1c(OCCCc2ccccc2)ccc2ccccc12)C(=O)OCc1ccccc1.Cl.Cl | 3.9 | 62.5 | 31.3 | 31.3 | 62.5 |
| CCCCCCCCOc1ccc2ccccc2c1-c1c(OCC(=O)N[C@H](CCCCN)C(=O)N[C@H](CCCNC(=N)N)C(=O)N[C@@H](CC(C)C)C(=O)OCc2ccccc2)ccc2ccccc12.Cl.Cl | 13 | 125 | 125 | 62.5 | 125 |
| CC(C)CCOc1ccc2ccccc2c1-c1c(OCC(=O)N[C@H](CCCCN)C(=O)N[C@H](CCCNC(=N)N)C(=O)N[C@@H](CC(C)C)C(=O)Oc2ccccc2)ccc2ccccc12.Cl.Cl | 3.9 | 15.6 | 15.6 | 7.8 | 15.6 |
| CC(C)CCOc1ccccc1-c1ccccc1OCC(=O)N[C@H](CCCCN)C(=O)N[C@H](CCCNC(=N)N)C(=O)N[C@@H](CC(C)C)C(=O)OCc1ccccc1.Cl.Cl | 1.95 | 31.3 | 31.3 | 31.3 | 31.3 |
| C=CCOc1ccc2ccccc2c1-c1c(OCC(=O)OCC)ccc2ccccc12 | 3.9 (≈ 9.45 µM) | 31.3 (≈ 75.9 µM) | 31.3 (≈ 75.9 µM) | 31.3 (≈ 75.9 µM) | 62.5 (≈ 152 µM) |
| C=CC[C@H](NC(=O)[C@@H](CCCNC(=N)N)NC(=O)[C@@H](CCCCN)NC(=O)COc1ccc2ccccc2c1-c1c(OCC2CCC2)ccc2ccccc12)C(=O)OCc1ccccc1.Cl.Cl | 3.9 | 62.5 | 52.1 | 31.3 | 62.5 |
| CC(C)C[C@H](NC(=O)[C@@H](CCCNC(=N)N)NC(=O)[C@@H](CCCCN)NC(=O)COc1ccc2ccccc2c1-c1c(OCC#N)ccc2ccccc12)C(=O)OCc1ccccc1.Cl.Cl | 3.9 | 62.5 | 31.3 | 31.3 | 62.5 |
| CC(C)C[C@H](NC(=O)[C@@H](CCCNC(=N)N)NC(=O)[C@@H](CCCCN)NC(=O)COc1ccc2ccccc2c1-c1c(OCCC2CC2)ccc2ccccc12)C(=O)OCc1ccccc1.Cl.Cl | 3.9 | 125 | 31.3 | 62.5 | 62.5 |
| CC(C)C[C@H](NC(=O)[C@@H](CCCNC(=N)N)NC(=O)[C@@H](CCCCN)NC(=O)COc1ccc2ccccc2c1-c1c(OCCc2ccccc2)ccc2ccccc12)C(=O)OCc1ccccc1.Cl.Cl | 5.2 | 31.3 | 31.3 | 15.6 | 31.3 |
| COCCOc1ccc2ccccc2c1-c1c(OCC(=O)N[C@H](CCCCN)C(=O)N[C@H](CCCNC(=N)N)C(=O)N[C@@H](CC(C)C)C(=O)OCc2ccccc2)ccc2ccccc12.Cl.Cl | 3.9 | 125 | 31.3 | 62.5 | 62.5 |
| CN[C@H](CC(C)C)C(=O)N[C@H]1C(=O)N[C@@H](CC(N)=O)C(=O)N[C@H]2C(=O)N[C@H]3C(=O)N[C@H](C(=O)N[C@H](C(=O)O)c4cc(O)cc(O)c4-c4cc3ccc4O)[C@H](O)c3ccc(c(Cl)c3)Oc3cc2cc(c3O[C@@H]2O[C@H](CO)[C@@H](O)[C@H](O)[C@H]2O[C@H]2C[C@](C)(N)[C@H](O)[C@H](C)O2)Oc2ccc(cc2Cl)[C@H]1O [VANCOMYCIN] | 1.95 (≈ 1.35 µM) | 1.95 (≈ 1.35 µM) | 62.5 (≈ 43.1 µM) | > 125 | < 0.98 |
